Consider three molecules from US7932274B2, “3-indazolyl-4-pyridylisothiazoles” (Eli Lilly and Company, priority 2008, dated 2011).

For series [1], the system named is stress-induced hyperthermia in rats. Description: Attenuation of stress-induced hyperthermia in rats. In kind it is in vivo, rat. As to conditions: male Fischer F-344 rats, p.o., 60 min pretreatment, T2-T1 rectal temperature. From the text:
Attenuation of Stress-Induced Hyperthermia in Rats
In many anxiety disorders, hyperthermia occurs as part of the pathology and is considered a symptom of the disease. Compounds which attenuate stress-induced hyperthermia in animals are believed to be useful in treating anxiety disorders in humans.
The conventional and minimally-invasive method for analyzing stress-induced hyperthermia is by measuring body temperature, and stress-induced increases in body temperature, via rectal thermometer. Male Fischer F-344; rats (Harlan, Indianapolis, Ind., USA) weighing between 275-350; g are tested. All animals are individually-housed with food and automated water available ad libitum, and maintained on a 12; h light/dark cycle (lights on at 06:00). Animals are fasted for approximately 12-18; hours before the experiment, which is conducted during the light phase. […]
After the pretreatment period, rats are taken individually to a brightly lit adjacent room where baseline body temperatures are determined by insertion of a rectal probe lubricated with mineral oil. Body temperature is assessed using a PHYSITEMP BAT-12® Microprobe Thermometer with a PHYSITEMP RET-2® rat rectal probe (Physitemp Instruments Inc., Clifton, N.J., USA). […] Ten minutes later a second body temperature measurement is recorded (T2). […]

In the next series the target is T1, human mGluR5 (Homo sapiens, UniProt P41594).
T1 construct: expressed in transfected cells; host or cells: AV-12 cells (ATCC) containing the rat EAAT1 glutamate transporter
T1 sequence (P41594 21-1180 isoform P41594-2 limits assumed): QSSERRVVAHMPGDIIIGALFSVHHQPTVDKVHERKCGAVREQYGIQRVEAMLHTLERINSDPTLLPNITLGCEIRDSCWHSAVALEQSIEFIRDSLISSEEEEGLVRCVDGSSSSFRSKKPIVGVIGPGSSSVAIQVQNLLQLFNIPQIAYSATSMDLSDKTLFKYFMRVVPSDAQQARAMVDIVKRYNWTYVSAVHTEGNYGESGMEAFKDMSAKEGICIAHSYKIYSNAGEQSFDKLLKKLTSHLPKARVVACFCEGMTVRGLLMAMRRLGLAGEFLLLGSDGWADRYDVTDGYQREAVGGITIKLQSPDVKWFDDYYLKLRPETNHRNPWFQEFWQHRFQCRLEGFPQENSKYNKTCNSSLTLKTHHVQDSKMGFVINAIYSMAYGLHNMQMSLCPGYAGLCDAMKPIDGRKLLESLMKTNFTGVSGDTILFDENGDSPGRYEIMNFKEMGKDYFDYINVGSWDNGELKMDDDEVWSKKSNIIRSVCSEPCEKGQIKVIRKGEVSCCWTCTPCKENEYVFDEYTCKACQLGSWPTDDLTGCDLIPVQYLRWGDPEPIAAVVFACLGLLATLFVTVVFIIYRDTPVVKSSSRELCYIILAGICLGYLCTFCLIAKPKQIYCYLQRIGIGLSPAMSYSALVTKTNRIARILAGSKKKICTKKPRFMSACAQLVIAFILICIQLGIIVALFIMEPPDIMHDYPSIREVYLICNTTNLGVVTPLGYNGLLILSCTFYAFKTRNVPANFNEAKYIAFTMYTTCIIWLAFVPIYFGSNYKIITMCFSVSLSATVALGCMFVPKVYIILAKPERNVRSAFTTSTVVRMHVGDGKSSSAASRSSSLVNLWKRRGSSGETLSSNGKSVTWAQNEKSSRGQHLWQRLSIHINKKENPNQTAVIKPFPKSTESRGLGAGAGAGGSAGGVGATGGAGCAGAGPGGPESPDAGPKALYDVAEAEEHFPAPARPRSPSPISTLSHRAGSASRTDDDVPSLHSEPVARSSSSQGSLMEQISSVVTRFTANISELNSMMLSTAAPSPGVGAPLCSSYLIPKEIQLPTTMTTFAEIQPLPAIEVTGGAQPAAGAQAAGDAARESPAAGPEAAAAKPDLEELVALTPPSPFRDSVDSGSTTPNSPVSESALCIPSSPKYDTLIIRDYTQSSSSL
Description: Functional in vitro activity at human mGluR5 receptors (FLIPR calcium assay, antagonism of glutamate EC90 response). The note with it: AV-12 cells expressing recombinant human mGluR5a and rat EAAT1, relative IC50, read-out: IC50 measured at mGluR5. In kind it is cell-based. The text has this:
Functional in Vitro Activity at Human mGluR5; and mGluR1; Receptors
The activation of G-protein coupled receptors (GPCRS) that are coupled to GTP-binding protein alpha q (Gq proteins) results in a change in intracellular calcium concentration. This functional response can be measured in a kinetic assay using calcium-sensitive dyes and a fluorescent imaging plate reader using a standard technique known as FLIPR (MDS Analytical Technologies, Sunnyvale, Calif.). Stable cell line preparation and assay techniques are adapted from Kingston, A. E., et. al. (1995) Neuropharmacology 34: 887-894. […]
For the functional assays, cells are seeded in growth medium lacking selection antibiotics at a density of 65K per well into 96-well, black/clear bottom, poly-D-lysine coated microplates and incubated for 18-20; hours prior to the experiment. […] The antagonist effects of compounds are quantified in the FLIPR instrument in 10-point dose curves by comparing the peak fluorescent responses to the agonist glutamate in the presence and absence of compound. Specifically, the compound effect is measured as maximal minus minimal peak heights in relative fluorescent units corrected for basal fluorescence as measured in the absence of glutamate. […]

In the case of `CC(C)c1cccc(-c2c(-c3ccc4nn(C)cc4c3)nsc2NC(=O)[C@@H]2C[C@H]2C)n1` [Example 23, (1R,2R)-2-methyl-cyclopropanecarboxylic acid [4-(6-isopropyl-pyridin-2-yl)-3-(2-methyl-2H-indazol-5-yl)-isothiazol-5-yl]-amide], the melting point (as a rule, the temperature, or range, at which the solid turns liquid) lay in the range of 142 to 144 °C.
As to `CCc1cccc(-c2c(-c3ccc4nn(C)cc4c3)nsc2NC(=O)[C@@H]2C[C@H]2C)n1` [Example 22, (1R,2R)-2-methyl-cyclopropanecarboxylic acid [4-(6-ethyl-pyridin-2-yl)-3-(2-methyl-2H-indazol-5-yl)-isothiazol-5-yl]-amide], the melting point came to 159.4 °C.
Turning to `CCc1cccc(-c2c(-c3ccc4nn(C)cc4c3)nsc2NC(=O)[C@@H]2C[C@H]2C)n1.Cl` [Example 2, (1R,2R)-2-methyl-cyclopropanecarboxylic acid [4-(6-ethyl-pyridin-2-yl)-3-(2-methyl-2H-indazol-5-yl)-isothiazol-5-yl]-amide hydrochloride], the “T35 dose (dose producing a 35% reduction in stress-induced hyperthermic response relative to vehicle)” value in series [1] is listed as 3.0 mg/kg. The IC50 (as a rule, the concentration needed to halve the response being measured) at human mGluR5 was 9.5 nM.
